Measured values taken from publication PMC9233054 (Pharmaceutical development and technology, 2022).
Values after ≈ are worked out from the molar mass of the structure shown.

Legend:
[1] = format: physicochemical; settings: 1:1 cholecalciferol:HPBCD; calculated with theoretic S0
physchem = settings: water, thermodynamic from solid
[2] = HPBCD 0 mM (control, D.I. H2O), S0; ref Hamilton 2015; cited from earlier work

C=C1CC[C@H](O)C/C1=C/C=C1\CCC[C@]2(C)[C@@H]([C@H](C)CCCC(C)C)CC[C@@H]12 [cholecalciferol]
stability constant K1:1 [1]: 71900 mM⁻¹
Solubility increase ratio (S/S0) (Phase solubility study; HPBCD 0 mM (control, D.I. H2O)): 1
Solubility increase ratio (S/S0) (Phase solubility study; HPBCD 10 mM): 5.92×10^5
Solubility increase ratio (S/S0) (Phase solubility study; HPBCD 40 mM): 1.42×10^7
Solubility increase ratio (S/S0) (Phase solubility study; HPBCD 50 mM): 2.29×10^7
Solubility increase ratio (S/S0) (Phase solubility study; HPBCD 70 mM): 4.56×10^7
Solubility increase ratio (S/S0) (Phase solubility study; HPBCD 100 mM): 9.30×10^7
Solubility increase ratio (S/S0) (Phase solubility study; HPBCD 120 mM): 1.11×10^8
Solubility increase ratio (S/S0) (Phase solubility study; HPBCD 150 mM): 1.90×10^8
Solubility increase ratio (S/S0) (Phase solubility study; HPBCD 170 mM): 2.31×10^8
Solubility increase ratio (S/S0) (Phase solubility study; HPBCD 200 mM): 3.29×10^8
solubility increase ratio (Phase solubility study; different HPBCD molarities (Table 1)): enhanced by five or more orders of magnitude
solubility at 3 days (physchem): 1.6 µM (≈ 0.615 µg/mL)
Saturated concentration of vitamin D3 in HPBCD solution (S) [2]: 3.38×10^−8 (S0) ([Hamilton 2015]) mM
